Measured values from article PMC6934184, “Selective DNA-PKcs inhibition extends the therapeutic index of localized radiotherapy and chemotherapy” (The Journal of Clinical Investigation, 2019).

Target: T1, DDR2 N456S (Homo sapiens, UniProt Q16832, N456S)
T1 construct: purchased Thermo Fisher Scientific (Life Technologies) SelectScreen
Test: SelectScreen LanthaScreen
Format: binding
Conditions: read-out: % displacement
In short: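 SelectScreen broad panel; activity (Z'LYTE, Adapta) plus binding formats. ATP: Km app for CSF1R Z'LYTE; 10 for CAMK1 Adapta. Readout = % per kinase.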

T1 sequence (Q16832 22-855 N456S): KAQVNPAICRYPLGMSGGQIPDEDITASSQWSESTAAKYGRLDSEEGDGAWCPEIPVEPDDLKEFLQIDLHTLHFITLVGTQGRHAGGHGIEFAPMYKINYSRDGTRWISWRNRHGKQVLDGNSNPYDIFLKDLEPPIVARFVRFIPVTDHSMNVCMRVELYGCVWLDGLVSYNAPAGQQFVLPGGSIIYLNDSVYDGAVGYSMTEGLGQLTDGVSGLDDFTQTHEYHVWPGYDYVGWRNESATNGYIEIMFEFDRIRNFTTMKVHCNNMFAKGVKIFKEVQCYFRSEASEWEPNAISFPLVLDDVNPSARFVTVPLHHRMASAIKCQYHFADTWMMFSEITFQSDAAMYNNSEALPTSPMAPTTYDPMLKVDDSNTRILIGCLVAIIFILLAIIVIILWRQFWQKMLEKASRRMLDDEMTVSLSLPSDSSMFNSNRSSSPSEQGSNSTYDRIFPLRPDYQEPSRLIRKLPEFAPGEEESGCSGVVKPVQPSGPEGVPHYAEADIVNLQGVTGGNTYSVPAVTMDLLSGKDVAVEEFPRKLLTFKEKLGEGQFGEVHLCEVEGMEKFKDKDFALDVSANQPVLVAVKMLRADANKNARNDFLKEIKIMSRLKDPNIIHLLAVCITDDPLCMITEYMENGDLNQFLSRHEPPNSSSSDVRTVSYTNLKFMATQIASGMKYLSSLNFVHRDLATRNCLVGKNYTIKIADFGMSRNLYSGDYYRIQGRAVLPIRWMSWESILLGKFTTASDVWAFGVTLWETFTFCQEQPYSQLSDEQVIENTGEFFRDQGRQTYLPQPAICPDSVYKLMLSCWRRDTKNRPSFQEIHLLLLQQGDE

SMILES: CN(C(=O)CN1CCOCC1)c1ccc2sc3c(-c4cccc5c(=O)cc(N6CC7CCC(C6)O7)oc45)cccc3c2c1 [NU5455]
- inhibition at 1 µM: 0.5%
